The supplement of paper PMC10307832

Assays:
Assay in all cases: relative viability (nuclei count vs DMSO), 5 days (fraction); higher = more cells survive
[1] = compound: COc1cc(Nc2c(C#N)cnc3cc(OCCCN4CCN(C)CC4)c(OC)cc23)c(Cl)cc1Cl [Bosutinib] + CS(=O)(=O)CCNCc1ccc(-c2ccc3ncnc(Nc4ccc(OCc5cccc(F)c5)c(Cl)c4)c3c2)o1 [Lapatinib] (partner 2 µM)
Summary of the method: (§1)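 One day after seeding in 1536-well plates, lung cancer cell lines were dosed by pin tool. Dosing was either single-drug or a fixed anchor-drug dose plus five library-drug doses (not always all listed) in √10 steps. After 5 days, nuclei were stained in one fix-and-stain step and counted on 4× images, and relative viability is the nuclei count of treated wells over that of vehicle wells, given as the median of duplicate plates.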

[2] = compound: COc1cc(Nc2c(C#N)cnc3cc(OCCCN4CCN(C)CC4)c(OC)cc23)c(Cl)cc1Cl [Bosutinib] + CC(=O)c1c(C)c2cnc(Nc3ccc(N4CCNCC4)cn3)nc2n(C2CCCC2)c1=O [Palbociclib] (partner 0.5 µM)
Summary of the method: as §1

[3] = compound: COc1cc(Nc2c(C#N)cnc3cc(OCCCN4CCN(C)CC4)c(OC)cc23)c(Cl)cc1Cl [Bosutinib] + N=C(N)NC(=N)NCCc1ccccc1 [Phenformin] (partner 250 µM)
Summary of the method: as §1

[4] = compound: COc1cc(Nc2c(C#N)cnc3cc(OCCCN4CCN(C)CC4)c(OC)cc23)c(Cl)cc1Cl [Bosutinib] + O=C(c1cc(Cc2n[nH]c(=O)c3ccccc23)ccc1F)N1CCN(C(=O)C2CC2)CC1 [Olaparib] (partner 8 µM)
Summary of the method: as §1

[5] = compound: COc1cc(Nc2c(C#N)cnc3cc(OCCCN4CCN(C)CC4)c(OC)cc23)c(Cl)cc1Cl [Bosutinib] + Nc1nc2[nH]cc(CCc3ccc(C(=O)N[C@@H](CCC(=O)O)C(=O)O)cc3)c2c(=O)[nH]1 [Pemetrexed] (partner 0.2 µM)
Summary of the method: as §1

| Cell Line | relative viability ([1]; first compound 0.01 µM) | relative viability ([1]; first compound 0.03162 µM) | relative viability ([1]; first compound 0.1 µM) | relative viability ([1]; first compound 1 µM) | relative viability ([2]; first compound 0.01 µM) | relative viability ([2]; first compound 0.03162 µM) | relative viability ([2]; first compound 0.1 µM) | relative viability ([2]; first compound 1 µM) | relative viability ([3]; first compound 0.01 µM) | relative viability ([3]; first compound 0.03162 µM) | relative viability ([3]; first compound 0.1 µM) | relative viability ([3]; first compound 1 µM) | relative viability ([4]; first compound 0.01 µM) | relative viability ([4]; first compound 0.03162 µM) | relative viability ([4]; first compound 0.1 µM) | relative viability ([4]; first compound 1 µM) | relative viability ([5]; first compound 0.01 µM) | relative viability ([5]; first compound 0.03162 µM) | relative viability ([5]; first compound 0.1 µM) | relative viability ([5]; first compound 1 µM) |
| --- | --- | --- | --- | --- | --- | --- | --- | --- | --- | --- | --- | --- | --- | --- | --- | --- | --- | --- | --- | --- |
| LXF-289 | 0.881 | 0.912 | 0.913 | 0.929 | 0.634 | 0.614 | 0.607 | 0.669 | 0.508 | 0.515 | 0.521 | 0.514 | 1.05 | 1.12 | 0.972 | 1.24 | 0.908 | 1.04 | 0.985 | 0.88 |
| NCI-H23 | 1.09 | 1.06 | 1.2 | 1.11 | 0.515 | 0.476 | 0.464 | 0.591 | 0.807 | 0.77 | 0.831 | 0.751 | 0.326 | 0.328 | 0.348 | 0.278 | 0.673 | 0.644 | 0.732 | 0.609 |
| NCI-H322M | 0.51 | 0.589 | 0.623 | 0.573 | 0.523 | 0.452 | 0.492 | 0.414 | 0.865 | 0.777 | 0.846 | 0.449 | 0.762 | 0.758 | 0.741 | 0.492 | 0.579 | 0.594 | 0.6 | 0.521 |
| NCI-H358 | 0.558 | 0.476 | 0.41 | 0.543 | 0.154 | 0.141 | 0.139 | 0.128 | 0.387 | 0.309 | 0.32 | 0.357 | 0.566 | 0.579 | 0.572 | 0.366 | 0.152 | 0.163 | 0.18 | 0.163 |
| NCI-H460 | 1.03 | 0.875 | 0.874 | 0.833 | 0.165 | 0.173 | 0.148 | 0.0817 | 0.557 | 0.492 | 0.491 | 0.356 | 0.388 | 0.407 | 0.392 | 0.414 | 0.0612 | 0.0671 | 0.0657 | 0.073 |
| NCI-H520 | 1.01 | 0.86 | 0.855 | 0.639 | 0.206 | 0.227 | 0.208 | 0.169 | 0.677 | 0.64 | 0.507 | 0.393 | 0.358 | 0.379 | 0.352 | 0.298 | 0.661 | 0.666 | 0.627 | 0.605 |
| NCI-H647 | 1.06 | 1.16 | 1.09 | 0.53 | 0.528 | 0.394 | 0.452 | 0.299 | 0.606 | 0.494 | 0.436 | 0.348 | 0.6 | 0.474 | 0.481 | 0.287 | 0.221 | 0.179 | 0.162 | 0.171 |
